Experimental data: article PMC11277489, “Novel Piperazine Derivatives of Vindoline as Anticancer Agents” (International Journal of Molecular Sciences, 2024)

How the values were obtained:
CCRF-CEM = assay: NCI60 one-dose screen (10 μM), Leukemia; type: cell-based; details: Homo sapiens, 10 μM, Leukemia, read-out: Growth percent rate
HL-60(TB) = assay: NCI60 one-dose screen (10 μM), Leukemia; type: cell-based; details: Homo sapiens; 10 μM; HL-60(TB), Leukemia; read-out: Growth percent rate
K-562 = assay: NCI60 one-dose screen (10 μM), Leukemia; type: cell-based; details: Homo sapiens, K562; 10 μM; K-562, Leukemia; read-out: Growth percent rate
MOLT-4 = assay: NCI60 one-dose screen (10 μM), Leukemia; type: cell-based, human; details: Homo sapiens; 10 μM; MOLT-4, Leukemia; read-out: Growth percent rate
RPMI-8226 = assay: NCI60 one-dose screen (10 μM), Leukemia; type: cell-based; details: Homo sapiens; 10 μM; RPMI-8226, Leukemia; read-out: Growth percent rate
A549/ATCC = assay: NCI60 one-dose screen (10 μM), Non-small Cell Lung Cancer; type: cell-based; details: Homo sapiens; 10 μM; A549/ATCC, Non-small Cell Lung Cancer; read-out: Growth percent rate
HOP-62 = assay: as above; type: cell-based; details: Homo sapiens; 10 μM; HOP-62, Non-small Cell Lung Cancer; read-out: Growth percent rate
NCI-H322M = assay: as above; type: cell-based; details: Homo sapiens, 10 μM, Non-small Cell Lung Cancer, read-out: Growth percent rate
NCI-H460 = assay: as above; type: cell-based; details: Homo sapiens; 10 μM; NCI-H460, Non-small Cell Lung Cancer; read-out: Growth percent rate
NCI-H522 = assay: as above; type: cell-based; details: Homo sapiens; 10 μM; NCI-H522, Non-small Cell Lung Cancer; read-out: Growth percent rate
COLO 205 = assay: NCI60 one-dose screen (10 μM), Colon Cancer; type: cell-based, human; details: for activity at 10 µM: Homo sapiens, COLO 205, Colon Cancer, read-out: Growth percent rate
HCT-116 = assay: NCI60 one-dose screen (10 μM), Colon Cancer; type: cell-based; details: Homo sapiens; 10 μM; HCT-116, Colon Cancer; read-out: Growth percent rate
HCT-15 = assay: NCI60 one-dose screen (10 μM), Colon Cancer; type: cell-based; details: Homo sapiens; 10 μM; HCT-15, Colon Cancer; read-out: Growth percent rate
HT29 = assay: NCI60 one-dose screen (10 μM), Colon Cancer; type: cell-based; details: Homo sapiens, HT-29; 10 μM; HT29, Colon Cancer; read-out: Growth percent rate
KM12 = assay: NCI60 one-dose screen (10 μM), Colon Cancer; type: cell-based, human; details: Homo sapiens; 10 μM; KM12, Colon Cancer; read-out: Growth percent rate
SW-620 = assay: NCI60 one-dose screen (10 μM), Colon Cancer; type: cell-based; details: Homo sapiens; 10 μM; SW-620, Colon Cancer; read-out: Growth percent rate
SF-268 = assay: NCI60 one-dose screen (10 μM), CNS Cancer; type: cell-based; details: Homo sapiens; 10 μM; SF-268, CNS Cancer; read-out: Growth percent rate
SF-295 = assay: NCI60 one-dose screen (10 μM), CNS Cancer; type: cell-based; details: Homo sapiens; 10 μM; SF-295, CNS Cancer; read-out: Growth percent rate
SF-539 = assay: NCI60 one-dose screen (10 μM), CNS Cancer; type: cell-based, human; details: for activity at 10 µM: Homo sapiens, SF-539, CNS Cancer, read-out: Growth percent rate
SNB-19 = assay: NCI60 one-dose screen (10 μM), CNS Cancer; type: cell-based; details: Homo sapiens; 10 μM; SNB-19, CNS Cancer; read-out: Growth percent rate
SNB-75 = assay: NCI60 one-dose screen (10 μM), CNS Cancer; type: cell-based, human; details: Homo sapiens; 10 μM; SNB-75, CNS Cancer; read-out: Growth percent rate
U251 = assay: NCI60 one-dose screen (10 μM), CNS Cancer; type: cell-based; details: Homo sapiens, U-251; 10 μM; U251, CNS Cancer; read-out: Growth percent rate
LOX IMVI = assay: NCI60 one-dose screen (10 μM), Melanoma; type: cell-based, human; details: Homo sapiens; 10 μM; LOX IMVI, Melanoma; read-out: Growth percent rate
MALME-3M = assay: NCI60 one-dose screen (10 μM), Melanoma; type: cell-based; details: Homo sapiens; 10 μM; MALME-3M, Melanoma; read-out: Growth percent rate
M14 = assay: NCI60 one-dose screen (10 μM), Melanoma; type: cell-based; details: Homo sapiens; 10 μM; M14, Melanoma; read-out: Growth percent rate
SK-MEL-2 = assay: NCI60 one-dose screen (10 μM), Melanoma; type: cell-based; details: Homo sapiens; 10 μM; SK-MEL-2, Melanoma; read-out: Growth percent rate
SK-MEL-28 = assay: NCI60 one-dose screen (10 μM), Melanoma; type: cell-based; details: Homo sapiens; 10 μM; SK-MEL-28, Melanoma; read-out: Growth percent rate
SK-MEL-5 = assay: NCI60 one-dose screen (10 μM), Melanoma; type: cell-based, human; details: for activity at 10 µM: Homo sapiens, SK-MEL-5, Melanoma, read-out: Growth percent rate
UACC-257 = assay: NCI60 one-dose screen (10 μM), Melanoma; type: cell-based; details: Homo sapiens; 10 μM; UACC-257, Melanoma; read-out: Growth percent rate
IGROV1 = assay: NCI60 one-dose screen (10 μM), Ovarian Cancer; type: cell-based; details: Homo sapiens, IGROV-1; 10 μM; IGROV1, Ovarian Cancer; read-out: Growth percent rate
OVCAR-3 = assay: NCI60 one-dose screen (10 μM), Ovarian Cancer; type: cell-based; details: Homo sapiens; 10 μM; OVCAR-3, Ovarian Cancer; read-out: Growth percent rate
OVCAR-8 = assay: NCI60 one-dose screen (10 μM), Ovarian Cancer; type: cell-based; details: Homo sapiens; 10 μM; OVCAR-8, Ovarian Cancer; read-out: Growth percent rate
786–0 = assay: NCI60 one-dose screen (10 μM), Renal Cancer; type: cell-based; details: Homo sapiens; 10 μM; 786-0, Renal Cancer; read-out: Growth percent rate
A498 = assay: NCI60 one-dose screen (10 μM), Renal Cancer; type: cell-based; details: Homo sapiens; 10 μM; A498, Renal Cancer; read-out: Growth percent rate
ACHN = assay: NCI60 one-dose screen (10 μM), Renal Cancer; type: cell-based; details: Homo sapiens, 10 μM, Renal Cancer, read-out: Growth percent rate
RXF 393 = assay: NCI60 one-dose screen (10 μM), Renal Cancer; type: cell-based, human; details: for activity at 10 µM: Homo sapiens, RXF 393, Renal Cancer, read-out: Growth percent rate
SN12C = assay: NCI60 one-dose screen (10 μM), Renal Cancer; type: cell-based; details: Homo sapiens, 10 μM, Renal Cancer, read-out: Growth percent rate
TK-10 = assay: NCI60 one-dose screen (10 μM), Renal Cancer; type: cell-based; details: Homo sapiens; 10 μM; TK-10, Renal Cancer; read-out: Growth percent rate
DU-145 = assay: NCI60 one-dose screen (10 μM), Prostate Cancer; type: cell-based; details: Homo sapiens; 10 μM; DU-145, Prostate Cancer; read-out: Growth percent rate
MCF7 = assay: NCI60 one-dose screen (10 μM), Breast Cancer; type: cell-based; details: Homo sapiens; 10 μM; MCF7, Breast Cancer; read-out: Growth percent rate
HS 578T = assay: NCI60 one-dose screen (10 μM), Breast Cancer; type: cell-based; details: Homo sapiens; 10 μM; HS 578T, Breast Cancer; read-out: Growth percent rate
[1] = system: 60 human tumor cell lines (NCI60); assay: NCI60 one-dose screen (10 μM), whole panel; type: cell-based; details: 10 μM; mean over 60 human cancer cell lines; read-out: Growth percent rate, Mean

CC[C@]12C=CCN3CC[C@@]4(c5ccc(OC)cc5N(C)[C@H]4[C@@](O)(C(=O)OC)[C@@H]1OC(=O)CCCN1CCN(c4ccc(C(F)(F)F)cc4)CC1)[C@@H]32 [Compound 22]
activity at 10 µM (CCRF-CEM): 3.97%
activity at 10 µM (HL-60(TB)): 7.9%
activity at 10 µM (K-562): 6.96%
activity at 10 µM (MOLT-4): 9.3%
activity at 10 µM (RPMI-8226): -9.29%
activity at 10 µM (A549/ATCC): 4.54%
activity at 10 µM (HOP-62): 0.03%
activity at 10 µM (NCI-H322M): 50.5%
activity at 10 µM (NCI-H460): -36.9%
activity at 10 µM (NCI-H522): -86%
growth percent rate (COLO 205; 10 μM one-dose, COLO-205 colon cancer, negative = lethality): −93.46%
activity at 10 µM (COLO 205): -93.5%
activity at 10 µM (HCT-116): -25.6%
activity at 10 µM (HCT-15): -82.9%
activity at 10 µM (HT29): -70.3%
activity at 10 µM (KM12): -70%
activity at 10 µM (SW-620): 7.47%
activity at 10 µM (SF-268): 0.04%
activity at 10 µM (SF-295): -84.8%
growth percent rate (SF-539; 10 μM one-dose, SF-539 CNS cancer, negative = lethality): −96.98%
activity at 10 µM (SF-539): -97%
activity at 10 µM (SNB-19): -3.08%
activity at 10 µM (SNB-75): 2.76%
activity at 10 µM (U251): -88.4%
activity at 10 µM (LOX IMVI): -97.2%
activity at 10 µM (MALME-3M): -90.3%
activity at 10 µM (M14): -75.5%
activity at 10 µM (SK-MEL-2): -93.9%
activity at 10 µM (SK-MEL-28): -92.1%
growth percent rate (SK-MEL-5; 10 μM one-dose, SK-MEL-5 melanoma, negative = lethality): −98.54%
activity at 10 µM (SK-MEL-5): -98.5%
activity at 10 µM (UACC-257): -79.3%
activity at 10 µM (IGROV1): -28.9%
activity at 10 µM (OVCAR-3): -71.5%
activity at 10 µM (OVCAR-8): -47.4%
activity at 10 µM (786–0): -72.7%
activity at 10 µM (A498): -15.1%
activity at 10 µM (ACHN): -20.3%
growth percent rate (RXF 393; 10 μM one-dose, RXF-393 renal cancer, negative = lethality): −91.93%
activity at 10 µM (RXF 393): -91.9%
activity at 10 µM (SN12C): -66.4%
activity at 10 µM (TK-10): -48.5%
activity at 10 µM (DU-145): -38.8%
activity at 10 µM (MCF7): -51.5%
activity at 10 µM (HS 578T): -46.2%
activity at 10 µM [1]: -44.5%

CC[C@]12C=CCN3CC[C@@]4(c5ccc(OC)cc5N(C)[C@H]4[C@@](O)(C(=O)OC)[C@@H]1OC(=O)CCC(=O)N1CCN(Cc4ccc(F)cc4)CC1)[C@@H]32 [Compound 30]
activity at 10 µM (CCRF-CEM): 61.4%
activity at 10 µM (HL-60(TB)): 82.2%
activity at 10 µM (K-562): 65.2%
activity at 10 µM (MOLT-4): 59.4%
activity at 10 µM (RPMI-8226): 46.3%
activity at 10 µM (A549/ATCC): 55.4%
activity at 10 µM (HOP-62): 88.4%
activity at 10 µM (NCI-H322M): 97.2%
activity at 10 µM (NCI-H460): 83.4%
activity at 10 µM (NCI-H522): 59.7%
activity at 10 µM (COLO 205): 66.7%
activity at 10 µM (HCT-116): 67.8%
activity at 10 µM (HCT-15): 79.5%
activity at 10 µM (HT29): 60.5%
activity at 10 µM (KM12): 83.6%
activity at 10 µM (SW-620): 102%
activity at 10 µM (SF-268): 50.8%
activity at 10 µM (SF-295): 67.9%
activity at 10 µM (SF-539): 78.7%
activity at 10 µM (SNB-19): 69.5%
activity at 10 µM (SNB-75): 64.5%
activity at 10 µM (U251): 71.6%
activity at 10 µM (LOX IMVI): 71.8%
activity at 10 µM (MALME-3M): 93.3%
activity at 10 µM (M14): 61%
activity at 10 µM (SK-MEL-2): 90.2%
activity at 10 µM (SK-MEL-28): 104%
activity at 10 µM (SK-MEL-5): 62.6%
activity at 10 µM (UACC-257): 86%
activity at 10 µM (IGROV1): 68.4%
activity at 10 µM (OVCAR-3): 63.7%
activity at 10 µM (OVCAR-8): 73.7%
activity at 10 µM (786–0): 84.2%
activity at 10 µM (A498): 110%
activity at 10 µM (ACHN): 71.3%
activity at 10 µM (RXF 393): 60.1%
activity at 10 µM (SN12C): 71.2%
activity at 10 µM (TK-10): 60.6%
activity at 10 µM (DU-145): 82.6%
activity at 10 µM (MCF7): 62.2%
activity at 10 µM (HS 578T): 78.5%
activity at 10 µM [1]: 71.4%
